Among the data in PubChem BioAssay (NCI) are TGI values, retold here.

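These data come from cells grown in 96-well plates and exposed to compound for 48 hours at five concentrations. Definition used: TGI = concentration required for complete inhibition of growth.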

Some test systems named below: 786-0 renal; HOP-62 NSCLC; KM12 colon; RXF 393 renal; UACC-62 melanoma.
Common to all, as to experiment: inhibition of tumour cell growth, NCI panel, 48 h

On to `O=c1/c(=C/c2ccccn2)sc2nc3cc4c(cc3n12)OCCO4`, for which the TGI with 786-0 renal, with HOP-62 NSCLC, in the experiment on KM12 colon, in the experiment on RXF 393 renal and with UACC-62 melanoma was above 100 µM in each case.
Turning to `CCN(CC)CCC1CCCCN1CC(=O)N1c2cc(Cl)ccc2NC(=O)CC1C` (centres undefined), the TGI with 786-0 renal, with HOP-62 NSCLC, in the experiment on KM12 colon, in the experiment on RXF 393 renal and with UACC-62 melanoma was above 100 µM throughout.
Regarding `CC(=O)[C@@]1(c2ccccc2)CC2(CCN(C)CC2)O[C@H]1C`, the TGI in the experiment with 786-0 renal, with HOP-62 NSCLC, in the experiment with KM12 colon and with RXF 393 renal was above 100 µM in each case.
In the case of `COc1cccc(CCNc2c(C#N)c3n(c4ccccc4[n+]3C)c3ncccc23)c1`, the TGI was 3.35 µM in the experiment on 786-0 renal; 43.8 µM with HOP-62 NSCLC; 4.53 µM in the experiment on KM12 colon; 38.2 µM in the experiment with RXF 393 renal; above 59.4 µM in the experiment on UACC-62 melanoma.
On the same counts, the results for `O=c1[nH]cnc2c1cnn2Cc1cnnn1COCCO` are above 100 µM, above 100 µM, above 100 µM, above 100 µM and above 100 µM.
Turning to `CCOS(=O)(=O)c1ccc(-c2c3nc(c(-c4ccc(S(=O)(=O)OCC)cc4)c4ccc([nH]4)c(-c4ccc(S(=O)(=O)OCC)cc4)c4nc(c(-c5ccc(S(=O)(=O)OCC)cc5)c5ccc2[nH]5)C=C4)C=C3)cc1`, the TGI in the experiment on 786-0 renal, in the experiment with KM12 colon, in the experiment with RXF 393 renal and with UACC-62 melanoma was above 31.6 µM in each case.
For the compound `CSc1nc(NCc2ccccc2)c2cnn(COCCO)c2n1`, the TGI in the experiment with 786-0 renal, in the experiment with HOP-62 NSCLC, in the experiment on KM12 colon, in the experiment on RXF 393 renal and in the experiment with UACC-62 melanoma was above 100 µM in each case.
As for `CC(=O)NC(C)(C)C1CCC(C)CC1` (centres undefined), the TGI with 786-0 renal, in the experiment with HOP-62 NSCLC, in the experiment with KM12 colon, with RXF 393 renal and with UACC-62 melanoma was above 100 µM each time.
Turning to `COc1ccc(C2=NNC(=O)c3ccccc3N2c2nc(-c3cccs3)nc3cc(OC)c(OC)cc23)cc1`, the TGI in the experiment with 786-0 renal is 12.1 µM; in the experiment on HOP-62 NSCLC it was 17 µM; in the experiment on KM12 colon, above 100 µM; in the experiment on UACC-62 melanoma, 5.79 µM.
Consider `Cc1ccnc(Nc2[nH]c(C(=O)c3ccc(Cl)cc3)c(N)c2C(=S)Nc2ccccc2)c1`, for which the TGI in the experiment with 786-0 renal is 34.8 µM; with HOP-62 NSCLC, 47.3 µM; with KM12 colon, 32.4 µM; in the experiment on RXF 393 renal it was 32.5 µM; in the experiment with UACC-62 melanoma it was 25.3 µM.
For `CN1C(=O)C23CCCC2CC1(c1ccccc1)S3` (centres undefined), in that order: above 100 µM, above 100 µM, above 100 µM, above 100 µM and above 100 µM.
As to `C(=C/c1nnnn1-c1ccccc1)/Nc1ccccc1`, the TGI was above 100 µM in the experiment on 786-0 renal; 81.6 µM with HOP-62 NSCLC; above 100 µM in the experiment with KM12 colon; above 100 µM with RXF 393 renal; above 100 µM with UACC-62 melanoma.
`CCC(Nc1ncnc2nc[nH]c12)C(=O)O` (centres undefined): the TGI with 786-0 renal, with HOP-62 NSCLC, in the experiment on KM12 colon, with RXF 393 renal and in the experiment on UACC-62 melanoma was above 100 µM throughout.
Take `O=C1CC(c2ccccc2)n2c(nc3ccccc32)N1` (centres undefined): the TGI with 786-0 renal, in the experiment on HOP-62 NSCLC, with KM12 colon, in the experiment with RXF 393 renal and with UACC-62 melanoma was above 100 µM each time.
`CN(C)CCCn1c(Cn2nc3ccccc3n2)nc2cc(C(F)(F)F)ccc21`: the TGI was 35.3 µM in the experiment with 786-0 renal; above 100 µM with HOP-62 NSCLC; 54.1 µM in the experiment with KM12 colon; above 100 µM with RXF 393 renal; 40.8 µM in the experiment on UACC-62 melanoma.
With `O=C(CC(C(=O)c1cccs1)c1ccsc1)c1ccc(Cl)s1` (centres undefined), the TGI in the experiment on 786-0 renal, in the experiment with HOP-62 NSCLC, in the experiment on KM12 colon and with UACC-62 melanoma was above 100 µM each time.
Consider `COc1ccc2c(c1)/c(=C/C#N)c1c3ccccc3[n+](C)n21`, for which the TGI in the experiment on 786-0 renal was above 70.1 µM; in the experiment on HOP-62 NSCLC it was 29.6 µM; in the experiment on KM12 colon it was 17.9 µM; with RXF 393 renal, 50.1 µM; in the experiment with UACC-62 melanoma, 42.3 µM.
For `CSc1ccc2c(c1)c(CCN)c(C)n2Cc1ccccc1Cl`, in that order: 3.42 µM, 2.62 µM, 3.32 µM, 2.83 µM and 3.05 µM.
On the same counts, the results for `Cc1cc(C)c2c(n1)S(=O)(=O)N(CCCN1CCN(c3cccc(Cl)c3)CC1)/C(=C(\O)c1ccc(Br)cc1)C2=O` are 38.2 µM, above 100 µM, above 100 µM, 83.7 µM and above 100 µM.
Regarding `O=S(=O)(c1ccccc1)c1ccc(-c2nc(-c3ccc4c(c3)Sc3ccccc3S4)cs2)cc1`, the TGI in the experiment on 786-0 renal was 45.1 µM; with HOP-62 NSCLC, 45.5 µM; in the experiment on KM12 colon, above 100 µM; in the experiment on RXF 393 renal, 35.3 µM; with UACC-62 melanoma, above 100 µM.
As for `O=c1c2c3c(sc2nc2n1NC=NN2)CCCC3`, the TGI with 786-0 renal is 31.9 µM; with KM12 colon, 34.1 µM; in the experiment with RXF 393 renal, above 61.9 µM; in the experiment with UACC-62 melanoma it was 35.8 µM.
As for `CC[C@]12C=CCN3CC[C@@]4(c5cc(Br)c(OC)cc5N(C)[C@H]4[C@@](O)(C(=O)NC(Cc4c[nH]c5ccccc45)C(=O)OC)[C@@H]1O)[C@@H]32` (some centres undefined), the TGI was above 100 µM with 786-0 renal; above 100 µM in the experiment on HOP-62 NSCLC; above 100 µM in the experiment with KM12 colon; 98.6 µM with RXF 393 renal; above 100 µM with UACC-62 melanoma.
`COc1ccccc1C(=O)OCC1CCCN2CCCCC12` (centres undefined): the TGI in the experiment with 786-0 renal is above 100 µM; in the experiment on KM12 colon, 36.6 µM; in the experiment on RXF 393 renal, 73.6 µM; in the experiment on UACC-62 melanoma, above 100 µM.
